# Molecular target: human Nav1.7 (Homo sapiens (Human), UniProt Q15858)
# Experiment: Nav 1.7 in vitro PatchXpress (PX) assay
# Type: cell-based
# Settings: not given
# Chain of human Nav1.7 (Q15858 whole entry): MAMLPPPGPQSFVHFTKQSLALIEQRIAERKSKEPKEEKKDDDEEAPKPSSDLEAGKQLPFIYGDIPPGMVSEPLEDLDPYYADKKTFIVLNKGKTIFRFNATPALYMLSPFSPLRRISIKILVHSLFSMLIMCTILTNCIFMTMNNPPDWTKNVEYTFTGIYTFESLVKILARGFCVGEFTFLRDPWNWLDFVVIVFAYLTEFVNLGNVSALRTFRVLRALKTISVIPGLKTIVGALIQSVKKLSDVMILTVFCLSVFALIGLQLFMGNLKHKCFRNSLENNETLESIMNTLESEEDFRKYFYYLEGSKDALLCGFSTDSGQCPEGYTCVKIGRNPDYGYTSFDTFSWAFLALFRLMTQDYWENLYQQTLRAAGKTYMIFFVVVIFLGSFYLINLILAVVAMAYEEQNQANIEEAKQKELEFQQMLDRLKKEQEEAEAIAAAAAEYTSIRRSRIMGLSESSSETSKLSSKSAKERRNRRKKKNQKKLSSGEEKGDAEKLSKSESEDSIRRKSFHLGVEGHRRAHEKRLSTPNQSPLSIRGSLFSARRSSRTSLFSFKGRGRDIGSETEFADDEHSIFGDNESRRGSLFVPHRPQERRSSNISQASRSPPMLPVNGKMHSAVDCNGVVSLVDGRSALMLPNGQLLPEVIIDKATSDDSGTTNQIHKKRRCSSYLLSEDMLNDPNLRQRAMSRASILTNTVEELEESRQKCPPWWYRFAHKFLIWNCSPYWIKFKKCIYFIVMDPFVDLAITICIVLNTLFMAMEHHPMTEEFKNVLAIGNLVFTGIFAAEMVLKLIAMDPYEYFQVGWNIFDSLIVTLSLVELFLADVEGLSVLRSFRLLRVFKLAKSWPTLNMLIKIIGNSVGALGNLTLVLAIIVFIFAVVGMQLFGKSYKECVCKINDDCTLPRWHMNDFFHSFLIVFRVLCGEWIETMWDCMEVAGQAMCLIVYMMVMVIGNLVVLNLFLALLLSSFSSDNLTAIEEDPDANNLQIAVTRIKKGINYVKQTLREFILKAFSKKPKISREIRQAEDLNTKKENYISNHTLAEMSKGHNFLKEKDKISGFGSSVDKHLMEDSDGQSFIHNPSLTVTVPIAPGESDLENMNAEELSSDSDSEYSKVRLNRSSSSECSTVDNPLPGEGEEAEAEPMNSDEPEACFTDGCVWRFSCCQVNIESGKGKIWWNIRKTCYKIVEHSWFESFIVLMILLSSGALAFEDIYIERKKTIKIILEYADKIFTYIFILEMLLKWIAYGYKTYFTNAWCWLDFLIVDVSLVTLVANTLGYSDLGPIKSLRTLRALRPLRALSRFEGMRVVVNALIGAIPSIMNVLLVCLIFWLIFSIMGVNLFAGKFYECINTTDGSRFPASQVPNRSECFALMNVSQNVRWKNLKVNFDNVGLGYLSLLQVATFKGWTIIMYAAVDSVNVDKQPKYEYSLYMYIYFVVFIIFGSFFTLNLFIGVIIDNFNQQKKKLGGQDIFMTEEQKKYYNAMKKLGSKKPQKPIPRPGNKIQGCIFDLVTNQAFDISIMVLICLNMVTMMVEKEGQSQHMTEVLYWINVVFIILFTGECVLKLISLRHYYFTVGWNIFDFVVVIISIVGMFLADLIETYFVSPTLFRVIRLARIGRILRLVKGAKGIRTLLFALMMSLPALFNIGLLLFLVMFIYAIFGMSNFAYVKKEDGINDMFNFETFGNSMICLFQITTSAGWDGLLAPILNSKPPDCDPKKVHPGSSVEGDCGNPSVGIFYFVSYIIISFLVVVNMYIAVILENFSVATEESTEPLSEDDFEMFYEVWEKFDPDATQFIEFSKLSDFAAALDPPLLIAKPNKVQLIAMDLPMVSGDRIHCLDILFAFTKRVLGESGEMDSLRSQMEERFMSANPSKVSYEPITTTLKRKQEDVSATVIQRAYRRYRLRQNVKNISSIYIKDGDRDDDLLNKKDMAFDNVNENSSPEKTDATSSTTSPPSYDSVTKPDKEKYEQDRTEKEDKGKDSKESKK
row,Structure (SMILES),IC50 [nM]
1,"CS(=O)(=O)NC(=O)c1cc(F)c(-c2cnc(Oc3ccc(Cl)c(Cl)c3)c(Cl)c2)cc1F [Example 570, 4-(5-chloro-6-(3,4-dichlorophenoxy)-3-pyridinyl)-2,5-difluoro-N-(methylsulfonyl)benzamide]",61.2
2,"Cc1ccc(Cl)cc1Oc1ncc(-c2cc(F)c(C(=O)NS(C)(=O)=O)cc2F)cc1Cl [Example 571, 4-(5-chloro-6-(5-chloro-2-methylphenoxy)-3-pyridinyl)-2,5-difluoro-N-(methylsulfonyl)benzamide]",99.2
3,"COc1cc(C(=O)NS(C)(=O)=O)ccc1-c1cnc(Oc2ccc(Cl)cc2)c(Cl)c1 [Example 350, 4-(5-chloro-6-(4-chlorophenoxy)-3-pyridinyl)-3-methoxy-N-(methylsulfonyl)benzamide]",92.6
4,"Cc1cc(C(=O)NS(C)(=O)=O)c(F)cc1-c1cnc(Oc2cccc(C(F)(F)F)c2C)c(Cl)c1 [Example 677, 4-(5-chloro-6-(2-methyl-3-(trifluoromethyl)phenoxy)-3-pyridinyl)-2-fluoro-5-methyl-N-(methylsulfonyl)benzamide]",83.7
5,"Cc1cc(C(=O)NS(C)(=O)=O)c(F)cc1-c1cnc(Oc2ccc(F)cc2F)c(Cl)c1 [Example 603, 4-(5-chloro-6-(2,4-difluorophenoxy)-3-pyridinyl)-2-fluoro-5-methyl-N-(methylsulfonyl)benzamide]",143
6,"COc1cc(C(=O)NS(C)(=O)=O)ccc1-c1cnc(Oc2cc(F)ccc2Cl)c(Cl)c1 [Example 371, 4-(5-chloro-6-(2-chloro-5-fluorophenoxy)-3-pyridinyl)-3-methoxy-N-(methylsulfonyl)benzamide]",80
7,"CS(=O)(=O)NC(=O)c1ccc(-c2cnc(Oc3ccc(Cl)cc3)c(Cl)c2)c(OC(F)F)c1 [Example 466, 4-(5-chloro-6-(4-chlorophenoxy)-3-pyridinyl)-3-(difluoromethoxy)-N-(methylsulfonyl)benzamide]",68.8
8,"CS(=O)(=O)NC(=O)c1cc(F)c(-c2cnc(Oc3c(Cl)cc(F)cc3Cl)c(Cl)c2)cc1F [Example 572, 4-(5-chloro-6-(2,6-dichloro-4-fluorophenoxy)-3-pyridinyl)-2,5-difluoro-N-(methylsulfonyl)benzamide]",57.6
9,"CS(=O)(=O)NC(=O)c1ccc(-c2cnc(Oc3cccc4ccccc34)c(Cl)c2)c(OC2COC2)c1 [Example 419, 4-(5-chloro-6-(1-naphthalenyloxy)-3-pyridinyl)-N-(methylsulfonyl)-3-(3-oxetanyloxy)benzamide]",98
10,"COc1cc(C(=O)NS(C)(=O)=O)ccc1-c1cnc(Oc2cc(Cl)ccc2Cl)c(Cl)c1 [Example 582, 4-(5-chloro-6-(2,5-dichlorophenoxy)-3-pyridinyl)-3-methoxy-N-(methylsulfonyl)benzamide]",61.4
11,"COc1cc(C(=O)NS(C)(=O)=O)ccc1-c1cnc(Oc2ccc(F)cc2C)c(Cl)c1 [Example 361, 4-(5-chloro-6-(4-fluoro-2-methylphenoxy)-3-pyridinyl)-3-methoxy-N-(methylsulfonyl)benzamide]",96.6
12,"COc1cc(C(=O)NS(C)(=O)=O)ccc1-c1cnc(Oc2cc(Cl)ccc2C)c(Cl)c1 [Example 379, 4-(5-chloro-6-(5-chloro-2-methylphenoxy)-3-pyridinyl)-3-methoxy-N-(methylsulfonyl)benzamide]",54.6
13,"COc1cc(C(=O)NS(C)(=O)=O)ccc1-c1cnc(Oc2cc(Cl)cc(Cl)c2)c(C(F)F)c1 [Example 382, 4-(6-(3,5-dichlorophenoxy)-5-(difluoromethyl)-3-pyridinyl)-3-methoxy-N-(methylsulfonyl)benzamide]",54
14,"CS(=O)(=O)NC(=O)c1ccc(-c2cnc(Oc3cc(Cl)cc(Cl)c3)c(Cl)c2)c(OC2COC2)c1 [Example 422, 4-(5-chloro-6-(3,5-dichlorophenoxy)-3-pyridinyl)-N-(methylsulfonyl)-3-(3-oxetanyloxy)benzamide]",31.3
15,"COc1cc(C(=O)NS(C)(=O)=O)ccc1-c1cnc(Oc2ccc(C)c(Cl)c2)c(C#N)c1 [Example 549, 4-(6-(3-chloro-4-methylphenoxy)-5-cyano-3-pyridinyl)-3-methoxy-N-(methylsulfonyl)benzamide]",50.5
16,"Cc1cc(C(=O)NS(C)(=O)=O)c(F)cc1-c1cnc(O[C@@H](C)c2cccc3ccccc23)c(Cl)c1 [Example 682, 4-(5-chloro-6-((1S)-1-(1-naphthalenyl)ethoxy)-3-pyridinyl)-2-fluoro-5-methyl-N-(methylsulfonyl)benzamide]",55.1
17,"CS(=O)(=O)NC(=O)c1cc(Cl)c(-c2cnc(OCC3CCCC3)c(Cl)c2)cc1F [Example 600, 5-chloro-4-(5-chloro-6-(cyclopentylmethoxy)-3-pyridinyl)-2-fluoro-N-(methylsulfonyl)benzamide]",91.9
18,"CS(=O)(=O)NC(=O)c1ccc(-c2cnc(Oc3ccc4ccccc4c3)c(Cl)c2)c(OC(F)F)c1 [Example 446, 4-(5-chloro-6-(2-naphthalenyloxy)-3-pyridinyl)-3-(difluoromethoxy)-N-(methylsulfonyl)benzamide]",74.8
19,"C[C@H](Oc1ncc(-c2ccc(C(=O)NS(C)(=O)=O)cc2OC(F)F)cc1Cl)c1ccccc1 [Example 457, 4-(5-chloro-6-((1S)-1-phenylethoxy)-3-pyridinyl)-3-(difluoromethoxy)-N-(methylsulfonyl)benzamide]",80
20,"Cc1ccc(Oc2ncc(-c3ccc(C(=O)NS(C)(=O)=O)cc3OC3COC3)cc2Cl)cc1Cl [Example 425, 4-(5-chloro-6-(3-chloro-4-methylphenoxy)-3-pyridinyl)-N-(methylsulfonyl)-3-(3-oxetanyloxy)benzamide]",32.2

# Same assay, conditions: in-vitro Nav 1.7 PX data
row,Structure (SMILES),IC50 [nM]
1,"CCc1ccc(-c2cc(F)c(C(=O)NS(C)(=O)=O)cc2C)cc1Cl [Example 814, 3′-chloro-4′-ethyl-5-fluoro-2-methyl-N-(methylsulfonyl)-4-biphenylcarboxamide]",381
2,"COc1cc(C(=O)NS(C)(=O)=O)c(F)cc1-c1cnc(OCC2C(C)(C)C2(C)C)c(Cl)c1 [Example 718, 4-(5-chloro-6-((2,2,3,3-tetramethylcyclopropyl)methoxy)-3-pyridinyl)-2-fluoro-5-methoxy-N-(methylsulfonyl)benzamide]",145
3,"Cc1cc(C(=O)NS(C)(=O)=O)c(F)cc1-c1cnc(NC(C)(C)C)c(Cl)c1 [Example 815, 4-(6-(tert-butylamino)-5-chloro-3-pyridinyl)-2-fluoro-5-methyl-N-(methylsulfonyl)benzamide]",231
4,"COc1cc(C(=O)NS(C)(=O)=O)ccc1-c1cnc(Oc2cc(Cl)cc(Cl)c2)c(C=O)c1 [Example 822, 4-(6-(3,5-Dichlorophenoxy)-5-Formylpyridin-3-yl)-3-Methoxy-N-(Methylsulfonyl)Benzamide]",151
5,"CS(=O)(=O)NC(=O)c1cc(OC(F)F)c(-c2cnc(Oc3c(F)ccc(F)c3F)c(Cl)c2)cc1F [Example 785, 4-(5-chloro-6-(2,3,6-trifluorophenoxy)-3-pyridinyl)-5-(difluoromethoxy)-2-fluoro-N-(methylsulfonyl)benzamide]",73.3
6,"Cc1cc(C(=O)NS(C)(=O)=O)c(F)cc1-c1ccc(C(F)(F)F)c(Cl)c1 [Example 807, 3′-chloro-5-fluoro-2-methyl-N-(methylsulfonyl)-4′-(trifluoromethyl)-4-biphenylcarboxamide]",413
7,"COc1cc(Oc2ncc(-c3cc(F)c(C(=O)NS(C)(=O)=O)cc3OC)cc2Cl)c(Cl)cc1Cl [Example 716, 4-(5-chloro-6-(2,4-dichloro-5-methoxyphenoxy)-3-pyridinyl)-2-fluoro-5-methoxy-N-(methylsulfonyl)benzamide]",91.7
8,"CS(=O)(=O)NC(=O)c1cc(C2CC2)c(-c2cnc(OC3CCC3)c(Cl)c2)cc1F [Example 802, 4-(5-chloro-6-cyclobutoxypyridin-3-yl)-5-cyclopropyl-2-fluoro-N-(methylsulfonyl)benzamide]",136
9,"COc1cc(C(=O)NS(C)(=O)=O)c(F)cc1-c1cnc(OC2(C(F)(F)F)CCC2)c(Cl)c1 [Example 734, 4-(5-chloro-6-((1-(trifluoromethyl)cyclobutyl)oxy)-3-pyridinyl)-2-fluoro-5-methoxy-N-(methylsulfonyl)benzamide]",58.7
10,"Cc1cc(Cl)cc(Cl)c1Oc1ncc(-c2cc(F)c(C(=O)NS(C)(=O)=O)cc2OC(F)F)cc1Cl [Example 782, 4-(5-chloro-6-(2,4-dichloro-6-methylphenoxy)-3-pyridinyl)-5-(difluoromethoxy)-2-fluoro-N-(methylsulfonyl)benzamide]",16.1
11,"COc1cc(C(=O)NS(C)(=O)=O)c(F)cc1-c1cnc(OCc2ccc(Cl)cc2)c(Cl)c1 [Example 750, 4-(5-chloro-6-((4-chlorobenzyl)oxy)-3-pyridinyl)-2-fluoro-5-methoxy-N-(methylsulfonyl)benzamide]",74.7
12,"COc1cc(C(=O)NS(C)(=O)=O)c(F)cc1-c1cnc(Oc2cc(Cl)ccc2F)c(Cl)c1 [Example 747, 4-(5-chloro-6-(5-chloro-2-fluorophenoxy)-3-pyridinyl)-2-fluoro-5-methoxy-N-(methylsulfonyl)benzamide]",83.6
13,"Cc1cc(C(=O)NS(=O)(=O)c2nccs2)c(F)cc1-c1cnc(OC2CCC2)c(Cl)c1 [Example 795, 4-(5-chloro-6-(cyclobutyloxy)-3-pyridinyl)-2-fluoro-5-methyl-N-(1,3-thiazol-2-ylsulfonyl)benzamide]",57.1
14,"COc1cc(C(=O)NS(C)(=O)=O)ccc1-c1cnc(Oc2ccc(C)c(Cl)c2)c(C#N)c1 [Example 829, 4-(6-(3-chloro-4-methylphenoxy)-5-cyano-3-pyridinyl)-3-methoxy-N-(methylsulfonyl)benzamide]",50.5
15,"COc1cc(C(=O)NS(C)(=O)=O)c(F)cc1-c1cnc(Oc2ccc(F)c(Cl)c2)c(Cl)c1 [Example 741, 4-(5-chloro-6-(3-chloro-4-fluorophenoxy)-3-pyridinyl)-2-fluoro-5-methoxy-N-(methylsulfonyl)benzamide]",56
16,"COc1cc(C(=O)NS(C)(=O)=O)c(F)cc1-c1cnc(Oc2cc(F)c(Cl)c(F)c2)c(Cl)c1 [Example 763, 4-(5-chloro-6-(4-chloro-3,5-difluorophenoxy)-3-pyridinyl)-2-fluoro-5-methoxy-N-(methylsulfonyl)benzamide]",47.1

# Source: patent publication US9663508B2, “Biaryl acyl-sulfonamide compounds as sodium channel inhibitors” (AMGEN INC., priority 2013, dated 2017)
